From ChEMBL document CHEMBL1145400, “Synthesis and biological evaluation of 4(5)-(6-alkylpyridin-2-yl)imidazoles as transforming growth factor-beta type 1 receptor kinase inhibitors” (J Med Chem, 2007)

What follows are compounds tested against T1, TGF-beta receptor type-1 (Homo sapiens, UniProt P36897) (assay: Inhibition of human recombinant ALK5 phosphorylation expressed in Sf9 cells).
T1 sequence (P36897 whole entry): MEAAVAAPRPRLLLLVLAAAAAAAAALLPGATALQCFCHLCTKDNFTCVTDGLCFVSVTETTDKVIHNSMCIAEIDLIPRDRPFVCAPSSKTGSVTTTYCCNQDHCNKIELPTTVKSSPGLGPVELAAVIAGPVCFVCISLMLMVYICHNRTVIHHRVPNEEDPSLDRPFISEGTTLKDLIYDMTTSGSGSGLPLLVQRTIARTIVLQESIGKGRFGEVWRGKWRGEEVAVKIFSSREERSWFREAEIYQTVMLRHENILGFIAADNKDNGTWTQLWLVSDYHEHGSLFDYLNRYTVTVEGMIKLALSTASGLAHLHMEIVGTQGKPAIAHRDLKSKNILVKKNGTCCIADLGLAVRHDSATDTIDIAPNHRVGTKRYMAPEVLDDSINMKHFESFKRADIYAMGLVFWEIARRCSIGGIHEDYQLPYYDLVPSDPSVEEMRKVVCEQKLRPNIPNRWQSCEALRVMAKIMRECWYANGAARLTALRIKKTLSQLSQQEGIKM

Point of comparison: `Cc1cccc(-c2[nH]c(CNc3cccc(C#N)c3)nc2-c2ccc3nccnc3c2)n1`, IC50 12 nM. Against it:
- CCc1cccc(-c2nc(CNc3ccc(C(N)=O)cc3)[nH]c2-c2ccc3nccnc3c2)n1 — 7.7-fold higher, 92 nM
- Cc1cccc(-c2[nH]c(NCc3cccc(C#N)c3)nc2-c2ccc3c(c2)OCO3)n1 — 2-fold higher, 24 nM
- Cc1cccc(-c2[nH]c(CNc3ccc(C#N)cc3)nc2-c2ccc3c(c2)OCO3)n1 — 14-fold higher, 174 nM
- CCc1cccc(-c2nc(CNc3cccc(C#N)c3)[nH]c2-c2ccc3c(c2)OCO3)n1 — 6.1-fold higher, 73 nM
- CCc1cccc(-c2[nH]c(CNc3ccc(C#N)cc3)nc2-c2ccc3c(c2)OCO3)n1 — 30-fold higher, 360 nM
- Cc1cccc(-c2[nH]c(CNc3ccc(C#N)cc3)nc2-c2ccc3nccnc3c2)n1 — 3.5-fold higher, 42 nM
- CCc1cccc(-c2[nH]c(CNc3cccc(C#N)c3)nc2-c2ccc3nccnc3c2)n1 — 9.9-fold higher, 119 nM
- CCc1cccc(-c2[nH]c(CNc3ccc(C#N)cc3)nc2-c2ccc3nccnc3c2)n1 — 3.9-fold higher, 47 nM
- Cc1cccc(-c2[nH]c(CNc3ccc(C(N)=O)cc3)nc2-c2ccc3c(c2)OCO3)n1 — 22-fold higher, 262 nM
- CCc1cccc(-c2nc(CNc3cccc(C(N)=O)c3)[nH]c2-c2ccc3c(c2)OCO3)n1 — 3.8-fold higher, 46 nM
- Cc1cccc(-c2nc(CNc3cccc(C(N)=O)c3)[nH]c2-c2ccc3nccnc3c2)n1 — within 1.5-fold, 10 nM
- Cc1cccc(-c2nc(CNc3ccc(C(N)=O)cc3)[nH]c2-c2ccc3nccnc3c2)n1 — 6.2-fold higher, 75 nM
- CCc1cccc(-c2[nH]c(CNc3cccc(C(N)=O)c3)nc2-c2ccc3nccnc3c2)n1 — within 1.5-fold, 15 nM
- Cc1cccc(-c2[nH]c(CNc3cccc(C#N)c3)nc2-c2ccc3c(c2)OCO3)n1 — 3.8-fold higher, 46 nM
- Cc1cccc(-c2[nH]c(CNc3cccc(C(N)=O)c3)nc2-c2ccc3c(c2)OCO3)n1 — 1.8-fold higher, 21 nM
- CCc1cccc(-c2[nH]c(CNc3ccc(C(N)=O)cc3)nc2-c2ccc3c(c2)OCO3)n1 — 32-fold higher, 385 nM
- Cc1cccc(-c2[nH]c(NCc3ccc(C#N)cc3)nc2-c2ccc3c(c2)OCO3)n1 — 13-fold higher, 153 nM

The compounds below were run against T2, Serine/threonine-protein kinase D1 (Homo sapiens, UniProt Q15139) (assay: Inhibition of PKCmu).
T2 sequence (Q15139 whole entry): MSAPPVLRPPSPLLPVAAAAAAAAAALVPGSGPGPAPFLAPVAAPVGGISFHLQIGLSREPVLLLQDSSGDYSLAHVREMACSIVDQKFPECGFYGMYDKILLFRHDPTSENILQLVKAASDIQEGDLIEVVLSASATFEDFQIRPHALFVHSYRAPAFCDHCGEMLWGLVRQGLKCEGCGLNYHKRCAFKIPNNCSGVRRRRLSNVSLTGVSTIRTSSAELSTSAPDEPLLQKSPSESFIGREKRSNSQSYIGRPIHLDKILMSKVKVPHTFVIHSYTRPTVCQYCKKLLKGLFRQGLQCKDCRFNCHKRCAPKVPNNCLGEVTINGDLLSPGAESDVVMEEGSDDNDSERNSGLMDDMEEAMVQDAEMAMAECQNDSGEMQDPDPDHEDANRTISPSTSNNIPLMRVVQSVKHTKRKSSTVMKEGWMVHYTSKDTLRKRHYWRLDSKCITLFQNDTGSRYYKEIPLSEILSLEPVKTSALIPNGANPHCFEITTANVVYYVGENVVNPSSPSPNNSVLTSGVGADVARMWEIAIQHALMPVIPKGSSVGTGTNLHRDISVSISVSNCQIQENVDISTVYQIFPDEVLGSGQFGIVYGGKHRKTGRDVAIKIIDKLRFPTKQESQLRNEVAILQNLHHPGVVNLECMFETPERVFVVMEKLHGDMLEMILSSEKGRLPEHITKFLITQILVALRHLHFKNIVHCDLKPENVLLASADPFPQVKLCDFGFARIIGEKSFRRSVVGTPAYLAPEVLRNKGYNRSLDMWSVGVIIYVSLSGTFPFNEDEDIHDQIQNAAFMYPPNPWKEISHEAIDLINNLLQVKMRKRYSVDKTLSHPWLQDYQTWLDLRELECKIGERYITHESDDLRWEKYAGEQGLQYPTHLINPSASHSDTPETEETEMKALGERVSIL

With `Cc1cccc(-c2[nH]c(CNc3cccc(C#N)c3)nc2-c2ccc3nccnc3c2)n1` the IC50 was 1000 nM.

Each compound was assayed against Mitogen-activated protein kinase 14 (Homo sapiens, UniProt Q16539).
Sequence of Mitogen-activated protein kinase 14 (Q16539 whole entry): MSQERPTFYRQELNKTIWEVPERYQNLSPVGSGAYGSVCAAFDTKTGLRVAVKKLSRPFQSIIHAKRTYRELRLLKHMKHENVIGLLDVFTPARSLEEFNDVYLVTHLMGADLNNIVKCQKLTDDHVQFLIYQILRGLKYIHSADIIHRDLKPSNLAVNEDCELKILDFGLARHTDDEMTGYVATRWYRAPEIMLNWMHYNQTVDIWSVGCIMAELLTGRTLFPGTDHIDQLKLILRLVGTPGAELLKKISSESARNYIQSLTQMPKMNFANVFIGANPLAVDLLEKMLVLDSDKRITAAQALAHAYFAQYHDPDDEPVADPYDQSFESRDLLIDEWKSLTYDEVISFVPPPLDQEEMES

`Cc1cccc(-c2[nH]c(CNc3cccc(C#N)c3)nc2-c2ccc3nccnc3c2)n1` showed an IC50 of 1030 nM.
